These results are taken from publication PMC10905588 (ACS Omega, 2024).

In data set [1] the target is T1, α-amylase (Homo sapiens, UniProt P04746).
T1 sequence (P04746 16-511): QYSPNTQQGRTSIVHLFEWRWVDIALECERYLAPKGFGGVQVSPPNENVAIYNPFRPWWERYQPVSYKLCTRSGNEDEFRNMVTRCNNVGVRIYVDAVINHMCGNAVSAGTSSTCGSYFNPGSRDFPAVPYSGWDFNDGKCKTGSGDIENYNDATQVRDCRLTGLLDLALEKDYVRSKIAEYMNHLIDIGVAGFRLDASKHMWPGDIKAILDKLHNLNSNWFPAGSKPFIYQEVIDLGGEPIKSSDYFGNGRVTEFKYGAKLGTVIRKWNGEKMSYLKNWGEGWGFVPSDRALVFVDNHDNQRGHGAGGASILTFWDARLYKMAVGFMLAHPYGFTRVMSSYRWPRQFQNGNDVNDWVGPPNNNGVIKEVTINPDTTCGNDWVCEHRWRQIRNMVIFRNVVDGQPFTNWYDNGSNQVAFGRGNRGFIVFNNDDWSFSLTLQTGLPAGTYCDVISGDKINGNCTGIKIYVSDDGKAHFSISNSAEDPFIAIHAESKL
The experiment in a line: in-vitro α-amylase inhibitory activity. The data set is classed as biochemical.

Data set [2] has as its target T2, α-glucosidase (Saccharomyces cerevisiae, UniProt P53341). As to the kind of experiment: in-vitro α-glucosidase inhibitory activity. The data set is classed as biochemical.
A further data set is described as follows: acute toxicity study. The data set is classed as in vivo.
Data set [3] concerns streptozotocin (STZ)-induced diabetic rat model. The experiment in a line: serum lipid profile in STZ-induced diabetic rats. The data set is classed as in vivo, Wistar rats. The following applies: 28th day, 12 mg/kg oral (glibenclamide 0.5 mg/kg), mean ± SEM, n = 8.
For data set [4] the test system is unchanged. The experiment in a line: kidney and liver function tests in STZ-induced diabetic rats. The data set is classed as in vivo, Wistar rats. The following applies: serum, 28th day; 12 mg/kg oral (glibenclamide 0.5 mg/kg); mean ± SEM, n = 8.
Data set [5] in a line: body weight of STZ-induced diabetic rats. The following applies: WA1-WA3 12 mg/kg; mean ± SEM, n = 8.
Data set [6] relates to streptozotocin (STZ)-induced diabetic rat model. As to the kind of experiment: blood glucose level in STZ-induced diabetic rats. To be noted: WA1-WA3 12 mg/kg oral, glibenclamide 0.5 mg/kg; mean ± SEM, n = 8.
Data set [7] has the same test system. As to the kind of experiment: glycated hemoglobin. The following applies: for HbA1c (%): Table 4: dose printed 6 mg/kg for WA1-WA3, 0.5 mg/kg glibenclamide, n = 8; for HbA1c level: text: WA1, WA2, WA3 at 12 mg/kg, diabetic control 10.12%.
Data set [8] concerns STZ-induced diabetic rat model. The following applies: during the course of 0–300 min; cited from earlier work.
Data set [9] has as its target T2, α-glucosidase. To be noted: read-out: IC50 α-glucosidase; cited from earlier work.
Data set [10] concerns the target T1, α-amylase. The following applies: read-out: IC50 α-amylase; cited from earlier work.

SMILES strings stand for the structures. Where two headings read alike, the source gives them in different places. Marks after values point to notes of the source that are not given here.

T2 sequence (P53341 whole entry): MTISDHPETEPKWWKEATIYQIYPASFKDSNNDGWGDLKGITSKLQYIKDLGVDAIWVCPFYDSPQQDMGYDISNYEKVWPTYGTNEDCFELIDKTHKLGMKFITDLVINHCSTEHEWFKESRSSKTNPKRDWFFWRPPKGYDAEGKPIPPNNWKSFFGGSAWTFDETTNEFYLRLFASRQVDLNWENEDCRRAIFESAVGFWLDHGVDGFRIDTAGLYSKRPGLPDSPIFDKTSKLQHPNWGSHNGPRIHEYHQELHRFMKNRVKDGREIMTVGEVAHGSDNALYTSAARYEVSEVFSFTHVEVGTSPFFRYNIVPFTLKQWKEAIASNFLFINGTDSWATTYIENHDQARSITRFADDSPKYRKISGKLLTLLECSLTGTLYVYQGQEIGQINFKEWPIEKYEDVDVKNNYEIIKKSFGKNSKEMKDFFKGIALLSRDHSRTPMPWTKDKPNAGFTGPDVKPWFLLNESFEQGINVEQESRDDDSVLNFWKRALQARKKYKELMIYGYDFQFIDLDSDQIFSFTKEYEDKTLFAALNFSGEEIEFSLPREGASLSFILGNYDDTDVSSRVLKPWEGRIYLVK

Molecule `COc1ccc2cc3[n+](cc2c1OC)CCc1cc2c(cc1-3)OCO2` [WA1, berberine] gave an IC50 against α-amylase [1] of 200 µM. On α-glucosidase [2], this molecule gave an IC50 of 569 µM. Further, the “nontoxic up to (acute toxicity profile)” value in “acute toxicity study” (oral doses 5-500 mg/kg b.w., observed up to 14 days) is “up to 500 mg/kg”. The “behavior in acute toxicity profile” value in “acute toxicity study” (up to 500 mg/kg (b.w.)) is listed as “normal behavior”. Moreover, in data set [3], the HDL was determined as 35.11 ± 1.66 mg/dL, the LDL stood at 56.33 ± 2.79 mg/dL, the “TC (total cholesterol)” value was 92.67 ± 4.81 mg/dL and the “TG (triglycerides)” value is reported as 112.17 ± 3.10 mg/dL. Further, in data set [4], the “kidney: creatinine” value is on record as 1.07 ± 0.06 mg/dL, the “kidney: urea” value is reported as 47.30 ± 1.51 mg/dL, the “liver: ALP” value is listed as 145.69 ± 3.78 U/L and the “liver: ALT” value is 88.30 ± 2.45 U/L. Moreover, in [4], the “liver: AST” value was 71.16 ± 1.79 U/L. Besides, in data set [5], the “body weight, 1st day” value is reported as 183.77 ± 5.01; the “body weight, 7th day” value was determined as 180.33 ± 4.91; the “body weight, 14th day” value stood at 178.16 ± 4.96; the “body weight, 21st day” value was found to be 174.80 ± 4.77. Further, in data set [5], the “body weight, 28th day” value came to 170.88 ± 4.84. In data set [6], the “blood glucose level, day 1st” value is 460.11 ± 5.17 mg/dL; the “blood glucose level, day 7th” value was found to be 376.70 ± 4.98 mg/dL; the “blood glucose level, day 14th” value came out at 268.21 ± 5.79 mg/dL; the “blood glucose level, day 21st” value is 176.33 ± 4.69 mg/dL. In [6], the “blood glucose level, day 28th” value amounted to 133.01 ± 5.18 mg/dL. Also, in data set [7], the “HbA1c (%)” value is listed as 7.55*** % and the HbA1c level is recorded as 7.55%.

Regarding `CN(C)C(=N)N=C(N)N` [metformin, reference compound], in data set [8], the “lowering of blood glucose levels” value is given as 25.9%.

On to `CC(C)=CCCC1(C)C=Cc2c(c(C)cc3c2[nH]c2ccccc23)O1` (stereo not drawn) [mahanimbine], for which the IC50 is 299 µM on α-glucosidase [9] and 250 µM on α-amylase [10].

Turning to `COc1ccc(Cl)cc1C(=O)NCCc1ccc(S(=O)(=O)NC(=O)NC2CCCCC2)cc1` [glibenclamide, reference compound], in [3], the HDL came to 39.64 ± 1.51 mg/dL, the LDL turned out to be 40.17 ± 1.80 mg/dL, the “TC (total cholesterol)” value worked out at 84.31 ± 4.95 mg/dL and the “TG (triglycerides)” value is given as 102.97 ± 3.69 mg/dL. In [4], the “kidney: creatinine” value was 1.01 ± 0.07 mg/dL, the “kidney: urea” value is listed as 40.17 ± 1.90 mg/dL, the “liver: ALP” value was 133.67 ± 3.71 U/L and the “liver: ALT” value is reported as 71.43 ± 2.13 U/L. Further, the “liver: AST” value in data set [4] is reported as 55.03 ± 1.94 U/L. In [5], the “body weight, 1st day” value came out at 184.11 ± 5.15; the “body weight, 7th day” value was found to be 183.91 ± 4.87; the “body weight, 14th day” value was 189.16 ± 5.13; the “body weight, 21st day” value is 187.63 ± 4.86. Moreover, the “body weight, 28th day” value in [5] worked out at 194.37 ± 4.90. Also, in data set [6], the “blood glucose level, day 1st” value was 458.12 ± 6.15 mg/dL; the “blood glucose level, day 7th” value was determined as 349.36 ± 4.98 mg/dL; the “blood glucose level, day 14th” value is given as 248.70 ± 6.96 mg/dL; the “blood glucose level, day 21st” value is 138.49 ± 4.86 mg/dL. Besides, the “blood glucose level, day 28th” value in [6] was 102.19 ± 5.11 mg/dL. Also, in [7], the “HbA1c (%)” value is 6.91*** % and the HbA1c level amounted to 6.91%.

For `COc1ccc2c(c1)[nH]c1c3c(c(C)cc12)OC(C)(C)C=C3` [O-methylmurrayamine A], the “lowering of blood glucose levels” value in data set [8] is reported as “roughly 24.6%”.

Turning to `COc1cc2[nH]c3c4c(c(C)cc3c2cc1OC)OC(C)(C)C=C4` [koenidine], in data set [8], the “lowering of blood glucose levels” value is recorded as around 22.5%.

The term IC50 denotes the concentration at which inhibition is half-maximal.
